Data from BigSolDB 2.1.

COC(=O)Nc1nc2ccc(Sc3ccccc3)cc2[nH]1
solubility (mole fraction)
Details | in 1,4-dioxane | in acetone | in acetonitrile | in ethanol | in ethyl acetate | in isopropanol | in methanol | in n-butanol | in n-propanol
273.15 K | – | 0.000154 | 1.31e-05 | 4.24e-05 | 0.000266 | 2.01e-05 | 3.69e-05 | 7.43e-05 | 5.94e-05
278.15 K | – | 0.000167 | 1.53e-05 | 4.62e-05 | 0.000308 | 2.39e-05 | 3.99e-05 | 8.03e-05 | 6.58e-05
283.15 K | – | 0.00018 | 1.79e-05 | 5.02e-05 | 0.000361 | 2.8e-05 | 4.28e-05 | 8.71e-05 | 7.33e-05
288.15 K | 0.0011 | 0.000194 | 2.06e-05 | 5.44e-05 | 0.000415 | 3.24e-05 | 4.57e-05 | 9.47e-05 | 8.16e-05
293.15 K | 0.00127 | 0.000209 | 2.36e-05 | 5.92e-05 | 0.000468 | 3.65e-05 | 4.86e-05 | 0.000102 | 8.97e-05
298.15 K | 0.00145 | 0.000225 | 2.68e-05 | 6.41e-05 | 0.000533 | 4.12e-05 | 5.14e-05 | 0.000111 | 9.97e-05
303.15 K | 0.00166 | 0.000241 | 3.06e-05 | 6.99e-05 | 0.000601 | 4.62e-05 | 5.54e-05 | 0.00012 | 0.000111
308.15 K | 0.00189 | 0.00026 | 3.47e-05 | 7.62e-05 | 0.000684 | 5.2e-05 | 5.94e-05 | 0.000132 | 0.000123
313.15 K | 0.00214 | 0.00028 | 3.99e-05 | 8.36e-05 | 0.000768 | 5.82e-05 | 6.33e-05 | 0.000143 | 0.000137
